Measurements reported in patent publication US9750719B2, “Tetrazole compounds as calcium channel blockers” (CONVERGENCE PHARMACEUTICALS LIMITED, priority 2010, dated 2017).
Structures can show the parent of a compound that is named as a salt.

Biological target: T1, human Cav2.2 α (α1B) subunit, along with the human β3 and α2δ1 auxiliary subunits (Homo sapiens, UniProt Q00975)
T1 construct: expressed in transfected cells
Experiment: hCav2.2 assay, IonWorks planar array electrophysiology in stable HEK293 cell line
Assay type: cell-based
Conditions: inhibition by 50% of current elicited by the 1st depolarising pulse; HEK293 cells; read-out: tonic pIC50 (converted)
Description: Compounds as defined in the first or second aspect may be tested for in vitro biological activity in the hCav2.2 assay in accordance with the following studies:
Stable cell lines expressing the human Cav2.2 α (α1B) subunit, along with the human β3 and α2δ1 auxiliary subunits were created following sequential transfection and selection of human embryonic kidney (HEK293) cells. HEK293 cells were cultured in Dulbecco's modified Eagles media/F12 media (Invitrogen, Cat #041-95750V) containing 10% fetal bovine serum, with added L-glutamine (2 mM; Invitrogen, Cat #25030-024) and non-essential amino acids (5%; Invitrogen, Cat #11140-035). Initially HEK293 cells were transfected with two plasmid vectors for expression of the hCav2.2 α subunit (pCIN5-hCav2.2 which carries a neomycin resistance marker) and the hCav β3 subunit (pCIH-hCav β3 which carries a hygromycin resistance marker). Clonal cell lines were isolated following selection in media supplemented with 0.4 mg ml^−1 Geneticin G418 (Invitrogen, Cat #10131-027) and 0.1 mg ml^−1 hygromycin (Invitrogen, Cat #10687-010). These clonal cell lines were assessed for Cav2.2 α/β3-mediated current expression using the IonWorks planar array electrophysiology technology (described below). A clonal line was identified that gave a reasonable level of functional Cav2.2 α/β3 current expression. This cell line was transfected with a plasmid vector for expression of the human α2δ1 subunit (pCIP-α2δ1 which carries a puromycin resistance marker) and clonal cell lines isolated following selection in media containing 0.62 μg ml^−1 puromycin (Sigma, Cat #P-7255), in addition to 0.4 mg ml^−1 Geneticin G418 and 0.1 mg ml^−1 hygromycin. Several cell lines were identified that gave robust levels of Cav2.2 α/β3/α2δ1-mediated current expression and one of these was selected for compound profiling. Expression of all three subunits within this cell line was continuously maintained by the inclusion of G418 (0.4 mg ml^−1), hygromycin (0.1 mg ml^−1) and puromycin (0.62 μg ml^−1). Cells were maintained at 37° C. in a humidified environment containing 5% CO2 in air. Cells were liberated from the T175 culture flasks for passage and harvesting using TrpLE (Invitrogen, Cat #12604-013).
Cells were grown to 30-60% confluence in T175 flasks and maintained at 30° C. for 24 hrs prior to recording. Cells were lifted by removing the growth media, washing with Ca^2+ free PBS (Invitrogen, Cat #14190-094) and incubating with 3 ml of warmed (37° C.) TrpLE (Invitrogen, Cat #12604-013) for 6 minutes. Lifted cells were suspended in 10 ml of extracellular buffer. Cell suspension was then placed into a 15 ml tube and centrifuged for 2 minutes at 700 rpm. After centrifugation, the supernatant was removed and the cell pellet was resuspended in 4.5 ml of extracellular solution.
Currents were recorded at room temperature (21-23° C.) using the IonWorks planar array electrophysiology technology (Molecular Devices Corp.). Stimulation protocols and data acquisition were carried out using a microcomputer (Dell Pentium 4). In order to determine planar electrode hole resistances (Rp), a 10 mV, 160 ms potential difference was applied across each hole. These measurements were performed before cell addition. After cell addition a seal test was performed prior to antibiotic (amphotericin) circulation to achieve intracellular access. Leak subtraction was conducted in all experiments by applying a 160 ms hyperpolarizing (10 mV) prepulse 200 ms before the test pulses to measure leak conductance. Test pulses stepping from the holding potential (VH) of −90 mV to +10 mV were applied for 20 ms and repeated 10 times at a frequency of 10 Hz. In all experiments, the test pulse protocol was performed in the absence (pre-read) and presence (post-read) of a compound. Pre- and post-reads were separated by a compound addition followed by a 3-3.5 min incubation. […]

T1 sequence (Q00975 whole entry): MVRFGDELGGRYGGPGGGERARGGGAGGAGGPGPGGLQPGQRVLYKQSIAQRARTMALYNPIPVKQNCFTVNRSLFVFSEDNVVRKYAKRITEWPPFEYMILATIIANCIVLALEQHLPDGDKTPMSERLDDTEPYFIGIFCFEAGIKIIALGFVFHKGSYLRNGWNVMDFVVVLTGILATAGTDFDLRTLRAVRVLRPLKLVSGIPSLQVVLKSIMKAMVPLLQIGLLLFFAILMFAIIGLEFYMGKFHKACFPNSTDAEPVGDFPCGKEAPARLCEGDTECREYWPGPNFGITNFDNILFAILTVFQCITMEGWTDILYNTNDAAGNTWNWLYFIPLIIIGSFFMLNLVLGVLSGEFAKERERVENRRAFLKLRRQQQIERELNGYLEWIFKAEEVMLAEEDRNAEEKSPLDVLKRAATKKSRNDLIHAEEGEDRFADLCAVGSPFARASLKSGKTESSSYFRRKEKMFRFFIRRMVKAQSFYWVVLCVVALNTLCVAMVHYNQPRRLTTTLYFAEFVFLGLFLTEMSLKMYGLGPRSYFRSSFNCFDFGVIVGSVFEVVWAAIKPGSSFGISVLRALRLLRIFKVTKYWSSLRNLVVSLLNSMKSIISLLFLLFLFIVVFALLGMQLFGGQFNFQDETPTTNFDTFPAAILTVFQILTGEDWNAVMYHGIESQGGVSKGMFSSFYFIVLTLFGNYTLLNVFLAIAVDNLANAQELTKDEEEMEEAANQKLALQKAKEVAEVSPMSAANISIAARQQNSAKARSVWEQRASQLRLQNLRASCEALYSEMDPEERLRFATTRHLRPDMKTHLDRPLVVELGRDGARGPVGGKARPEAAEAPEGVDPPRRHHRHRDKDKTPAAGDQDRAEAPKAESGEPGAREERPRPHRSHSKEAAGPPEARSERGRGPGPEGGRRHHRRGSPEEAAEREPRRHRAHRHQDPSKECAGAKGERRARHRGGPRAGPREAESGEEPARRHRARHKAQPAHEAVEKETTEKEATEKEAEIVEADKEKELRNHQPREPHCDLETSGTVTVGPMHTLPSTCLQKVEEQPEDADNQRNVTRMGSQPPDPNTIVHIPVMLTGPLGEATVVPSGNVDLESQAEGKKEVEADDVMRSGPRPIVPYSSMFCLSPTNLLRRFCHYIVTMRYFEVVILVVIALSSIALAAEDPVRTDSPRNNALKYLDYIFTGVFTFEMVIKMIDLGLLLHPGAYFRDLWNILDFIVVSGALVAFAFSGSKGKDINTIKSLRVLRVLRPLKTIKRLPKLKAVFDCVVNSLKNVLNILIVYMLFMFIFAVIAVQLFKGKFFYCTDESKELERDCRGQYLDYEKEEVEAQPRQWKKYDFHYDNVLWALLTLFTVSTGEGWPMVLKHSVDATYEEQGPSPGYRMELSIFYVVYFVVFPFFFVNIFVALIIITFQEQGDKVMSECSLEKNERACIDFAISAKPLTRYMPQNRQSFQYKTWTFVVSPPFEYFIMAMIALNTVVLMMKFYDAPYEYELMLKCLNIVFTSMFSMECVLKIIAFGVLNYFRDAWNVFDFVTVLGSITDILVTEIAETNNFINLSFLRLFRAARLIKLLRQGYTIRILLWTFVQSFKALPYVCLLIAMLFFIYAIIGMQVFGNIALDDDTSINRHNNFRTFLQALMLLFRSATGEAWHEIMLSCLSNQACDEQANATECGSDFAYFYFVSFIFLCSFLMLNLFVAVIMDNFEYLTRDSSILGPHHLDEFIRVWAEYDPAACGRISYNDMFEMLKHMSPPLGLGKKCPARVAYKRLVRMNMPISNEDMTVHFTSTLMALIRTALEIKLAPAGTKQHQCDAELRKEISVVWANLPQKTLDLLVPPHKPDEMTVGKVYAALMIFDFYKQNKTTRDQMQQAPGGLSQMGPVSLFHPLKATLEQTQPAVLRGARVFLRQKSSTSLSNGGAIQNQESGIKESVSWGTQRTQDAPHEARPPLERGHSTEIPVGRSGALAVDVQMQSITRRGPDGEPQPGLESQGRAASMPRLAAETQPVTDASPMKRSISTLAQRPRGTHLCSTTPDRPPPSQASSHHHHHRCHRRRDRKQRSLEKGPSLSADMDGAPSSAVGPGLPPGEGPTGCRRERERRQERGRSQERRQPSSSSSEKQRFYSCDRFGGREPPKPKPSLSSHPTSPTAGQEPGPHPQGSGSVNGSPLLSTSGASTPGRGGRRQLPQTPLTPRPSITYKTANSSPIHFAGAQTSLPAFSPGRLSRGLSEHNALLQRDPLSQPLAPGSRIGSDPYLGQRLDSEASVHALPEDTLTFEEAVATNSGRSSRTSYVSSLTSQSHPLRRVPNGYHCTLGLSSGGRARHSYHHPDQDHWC
T1 sequence (P54284 whole entry partner): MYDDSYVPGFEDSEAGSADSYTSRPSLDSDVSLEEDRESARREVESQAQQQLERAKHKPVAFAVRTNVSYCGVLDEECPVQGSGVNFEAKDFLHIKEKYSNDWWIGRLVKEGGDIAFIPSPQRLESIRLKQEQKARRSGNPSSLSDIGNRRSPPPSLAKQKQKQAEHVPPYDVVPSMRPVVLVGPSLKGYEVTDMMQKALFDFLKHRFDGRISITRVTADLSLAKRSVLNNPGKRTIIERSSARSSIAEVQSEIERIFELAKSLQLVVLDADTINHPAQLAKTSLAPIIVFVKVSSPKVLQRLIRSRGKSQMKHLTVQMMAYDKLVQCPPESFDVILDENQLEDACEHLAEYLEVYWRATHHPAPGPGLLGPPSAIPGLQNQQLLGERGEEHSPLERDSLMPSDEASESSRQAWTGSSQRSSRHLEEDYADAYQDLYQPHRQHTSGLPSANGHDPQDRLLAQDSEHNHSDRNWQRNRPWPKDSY
T1 sequence (P54289 25-946 partner limits assumed): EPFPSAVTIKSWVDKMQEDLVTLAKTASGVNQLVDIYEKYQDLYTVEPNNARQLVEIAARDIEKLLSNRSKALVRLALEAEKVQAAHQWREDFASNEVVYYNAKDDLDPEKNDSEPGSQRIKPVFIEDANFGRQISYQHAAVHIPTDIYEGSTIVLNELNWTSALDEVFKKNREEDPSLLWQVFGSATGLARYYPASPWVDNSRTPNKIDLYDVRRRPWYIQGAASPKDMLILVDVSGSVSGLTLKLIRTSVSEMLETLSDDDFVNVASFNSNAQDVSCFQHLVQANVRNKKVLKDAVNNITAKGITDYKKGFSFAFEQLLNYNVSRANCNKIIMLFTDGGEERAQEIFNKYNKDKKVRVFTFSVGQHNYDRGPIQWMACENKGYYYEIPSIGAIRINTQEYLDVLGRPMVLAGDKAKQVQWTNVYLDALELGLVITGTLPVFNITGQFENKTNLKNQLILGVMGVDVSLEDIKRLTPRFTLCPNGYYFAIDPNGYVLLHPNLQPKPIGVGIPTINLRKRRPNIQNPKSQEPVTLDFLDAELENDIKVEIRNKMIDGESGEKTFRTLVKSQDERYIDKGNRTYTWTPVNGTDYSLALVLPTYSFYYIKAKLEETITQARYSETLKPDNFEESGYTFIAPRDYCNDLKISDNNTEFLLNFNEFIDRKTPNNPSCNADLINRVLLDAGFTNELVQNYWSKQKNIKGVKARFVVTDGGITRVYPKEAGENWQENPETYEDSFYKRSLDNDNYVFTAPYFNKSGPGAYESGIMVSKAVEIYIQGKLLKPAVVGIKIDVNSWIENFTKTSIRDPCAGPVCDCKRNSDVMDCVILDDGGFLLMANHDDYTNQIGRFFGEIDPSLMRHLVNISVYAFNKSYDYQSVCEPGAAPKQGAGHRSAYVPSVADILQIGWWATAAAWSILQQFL
T1 sequence (P54289 947-1103 partner limits assumed): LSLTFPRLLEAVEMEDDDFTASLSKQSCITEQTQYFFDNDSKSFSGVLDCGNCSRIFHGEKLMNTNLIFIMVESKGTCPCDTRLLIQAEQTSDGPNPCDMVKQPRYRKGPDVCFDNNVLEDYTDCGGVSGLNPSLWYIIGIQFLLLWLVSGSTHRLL

Row | IC50 | SMILES
1 | ≤ 31.6 µM | O=S1(=O)CCC2CN(Cc3nnnn3-c3ccc(C(F)(F)F)cc3)CCN21 (stereo not shown) [Compound 78, 5-({1-[4-(Trifluoromethyl)phenyl]-1H-tetrazol-5-yl}methyl)hexahydro-2H-isothiazole[2,3-a]pyrazine 1,1-dioxide]
2 | ≤ 31.6 µM | C[C@@H]1COC[C@H](C)N1Cc1nnnn1-c1cccc(C(F)(F)F)c1 [Compound 64, (cis)-3,5-dimethyl-4-({1-[3-(Trifluoromethyl)phenyl]-1H-tetrazol-5-yl}methyl)morpholine hydrochloride]
3 | ≤ 3.16 µM | CS(=O)(=O)N1CCN(Cc2nnnn2-c2ccc(C(F)(F)F)cc2)CC1 [Compound 71, 1-(Methylsulfonyl)-4-({1-[4-(trifluoromethyl)phenyl]-1H-tetrazol-5-yl}methyl)piperazine]
4 | ≤ 10 µM | CC1(C)COCCN1Cc1nnnn1-c1cccc(C(F)(F)F)c1 [Compound 29, 3,3-Dimethyl-4-({1-[3-(trifluoromethyl)phenyl]-1H-tetrazol-5-yl}methyl)morpholine]
5 | ≤ 31.6 µM | N#Cc1ccc(-n2nnnc2CN2CCC[C@@H]2C(F)(F)F)cc1 [Compound 73, 4-(5-{[(2R)-2-(Trifluoromethyl)-1-pyrrolidinyl]methyl}-1H-tetrazol-1-yl)benzonitrile]
6 | ≤ 31.6 µM | C[C@@H]1COCCN1Cc1nnnn1-c1ccc(C(F)(F)F)cn1 [Compound 42, (3R)-3-Methyl-4-({1-[5-(trifluoromethyl)-2-pyridinyl]-1H-tetrazol-5-yl}methyl)morpholine]
7 | ≤ 3.16 µM | C[C@@H]1COCCN1Cc1nnnn1-c1ccc(C(F)(F)F)cc1 [Compound 28, (3R)-3-Methyl-4-({1-[4-(trifluoromethyl)phenyl]-1H-tetrazol-5-yl}methyl)morpholine hydrochloride]
8 | ≤ 31.6 µM | CCN1CCN(Cc2nnnn2-c2cccc(C(F)(F)F)c2)[C@H](C)C1 [Compound 92, (2R)-4-Ethyl-2-methyl,-1-({1-[3-(trifluoromethyl)phenyl]-1H-tetrazol-5-yl}methyl)piperazine hydrochloride]

Continued, molecule first:

Row | SMILES | IC50
9 | CCCS(=O)(=O)N1CCN(Cc2nnnn2-c2ccc(C#N)c(C(F)(F)F)c2)CC1 [Compound 106, 4-(5-{[4-(Propylsulfonyl)-1-piperazinyl]methyl}-1H-tetrazol-1-yl)-2-(trifluoromethyl)benzonitrile] | ≤ 3.16 µM
10 | CC1C(=O)N(C)CCN1Cc1nnnn1-c1cccc(C(F)(F)F)c1 (stereo not shown) [Compound 33, 1,3-Dimethyl-4-({1-[3-(trifluoromethyl)phenyl]-1H-tetrazol-5-yl}methyl)-2-piperazinone] | 63.1 µM
11 | CC(C)C(=O)N1CCN(Cc2nnnn2-c2ccc(C#N)c(C(F)(F)F)c2)CC1 [Compound 146, 4-(5-{[4-(2-methylpropanoyl)-1-piperazinyl]methyl}-1H-tetrazol-1-yl)-2-(trifluoromethyl)benzonitrile] | ≤ 3.16 µM
12 | C[C@@H]1COCCN1Cc1nnnn1-c1ccc(C#N)c(C(F)(F)F)c1 [Compound 41, 4-(5-{[(3R)-3-Methyl-4-morpholinyl]methyl}-1H-tetrazol-1-yl)-2-(trifluoromethyl)benzonitrile] | ≤ 3.16 µM
13 | N#Cc1ccc(-n2nnnc2CN2[C@@H]3CC[C@H]2COC3)cc1C(F)(F)F [Compound 103, 4-[5-(3-oxa-8-azabicyclo[3.2.1]oct-8-ylmethyl)-1H-tetrazol-1-yl]-2-(trifluoromethyl)benzonitrile hydrochloride] | ≤ 10 µM
14 | Cc1c(-n2nnnc2CN2C[C@@H]3C[C@H]2CO3)ccc(C#N)c1C(F)(F)F [Compound 129, 3-methyl-4-{5-[(1S,4S)-2-oxa-5-azabicyclo[2.2.1]hept-5-ylmethyl]-1H-tetrazol-1-yl}-2-(trifluoromethyl)bbenzonitrile hydrochloride] | ≤ 31.6 µM
15 | FS(F)(F)(F)(F)c1ccc(-n2nnnc2CN2C[C@@H]3C[C@H]2CO3)cc1 [Compound 127, (1S,4S)-5-({1-[4-(pentafluoro-λ^6-sulfanyl)phenyl]-1H-tetrazol-5-yl}methyl)-2-oxa-5-azabicyclo[2.2.1]heptane] | ≤ 31.6 µM
16 | FCC12CCCN1CCN(Cc1nnnn1-c1ccc(C(F)(F)F)cc1)C2 (stereo not shown) [Compound 77, 8a-(Fluoromethyl)-2-({1-[4-(trifluoromethyl)phenyl]-1H-tetrazol-5-yl}methyl)octahydropyrrolo[1,2-a]pyrazine] | ≤ 31.6 µM
17 | FC(F)(F)c1cc(-n2nnnc2CN2CCOCC2)ccc1Cl [Compound 111, 4-({1-[4-chloro-3-(trifluoromethyl)phenyl]-1H-tetrazol-5-yl}methyl)morpholine] | ≤ 3.16 µM
18 | CCCS(=O)(=O)N1CCN(Cc2nnnn2-c2ccc(Cl)cc2)CC1 [Compound 23, 1-{[1-(4-Chlorophenyl)-1H-tetrazol-5-yl]methyl}-4-(propylsulfonyl)piperazine] | ≤ 31.6 µM
19 | N#Cc1ccc(-n2nnnc2CN2CCNCC2)cc1C(F)(F)F [Compound 101, 4-[5-(1-piperazinylmethyl)-1H-tetrazol-1-yl]-2-(trifluoromethyl)benzonitrile] | ≤ 10 µM
20 | N#Cc1ccc(-n2nnnc2CN2CCOCC2)cc1C(F)(F)F [Compound 34, 4-[5-(4-Morpholinylmethyl)-1H-tetrazol-1-yl]-2-(trifluoromethyl)benzonitrile hydrochloride] | ≤ 31.6 µM
21 | CN1CCN(Cc2nnnn2-c2cccc(C(F)(F)F)c2)CC1(C)C [Compound 45, 1,2,2-Trimethyl-4-({1-[3-(trifluoromethyl)phenyl]-1H-tetrazol-5-yl}methyl)piperazine hydrochloride] | ≤ 31.6 µM
22 | Clc1ccc(-n2nnnc2CN2CCOCC2)cc1Cl [Compound 21, 4-{[1-(3,4-Dichlorophenyl)-1H-tetrazol-5-yl]methyl}morpholine] | ≤ 10 µM
23 | C[C@@H]1CN(Cc2nnnn2-c2cccc(C(F)(F)F)c2)C[C@H](C)O1 [Compound 3, (cis)-2,6-Dimethyl-4-({1-[3-(trifluoromethyl)phenyl]-1H-tetrazol-5-yl}methyl)morpholine] | ≤ 31.6 µM
24 | C[C@@H]1CN(Cc2nnnn2-c2ccc(Br)cc2Cl)C[C@H](C)O1 [Compound 57, cis-4-{[1-(4-Bromo-2-chlorophenyl)-1H-tetrazol-5-yl]methyl}-2,6-dimethylmorpholine hydrochloride] | ≤ 31.6 µM
25 | CCC(=O)N1CCN(Cc2nnnn2-c2ccc(C#N)c(C(F)(F)F)c2)CC1 [Compound 145, 4-{5-[(4-propanoyl-1-piperazinyl)methyl]-1H-tetrazol-1-yl}-2-(trifluoromethyl)benzonitrile] | ≤ 3.16 µM
